Tests used:
cardiac myocytes [1] = assay: Cell Death Detection ELISA: cytoplasmic accumulation of mono- and oligo-nucleosomes (DNA fragmentation); format: cell-based, rat
Method: Primary cultures of ventricular cardiac myocytes were prepared from 1-day-old Crl: (WI) BR-Wistar rats (Charles River Laboratories, Wilmington, Mass.) as described previously (34). A cardiac myocyte rich fraction was obtained by centrifugation through the discontinuous Percoll gradient as described (34). Cells were cultured in the cardiac myocyte culture medium containing Dulbecco's modified Eagle medium (DMEM)/F12 supplemented with 5% horse serum, 4 μg/mL transferrin, 0.7 ng/mL sodium selenite (GIBCO), 2 g/L bovine serum albumin (fraction V), 3 mmol/L pyruvic acid, 15 mmol/L HEPES, 100 μmol/L ascorbic acid, 100 μg/mL ampicillin, 5 μg/mL linoleic acid and 100 μmol/L 5-bromo-2′-deoxyuridine (Sigma). We obtained myocyte cultures in which more than 95% were myocytes, as assessed by immunofluorescence staining with a monoclonal antibody against sarcomeric myosin (MF20). Culture media were changed to serum-free at 24–36 h and then subjected to adenovirus transduction. Myocytes were cultured in the serum-free condition for 48 h before experiments.
Histone-associated DNA fragments were quantified by the Cell Death Detection ELISA (Roche, Indianapolis, Ind.) according to the manufacturer's instruction as described (35) with minor modification for sample preparation. In brief, myocytes were rinsed with PBS three times in order to remove nucleosomes leaked out from necrotic cells and then incubated with the lysis buffer for 30 min. The supernatant containing mono- and oligonucleosomes from the cytoplasmic fraction of apoptotic cells was used for further analyses. DNA fragmentation of the tissue samples was determined by DNA laddering assays. Genomic DNA containing small molecular weight fragments was isolated and analyzed by agarose gel electrophoresis as described (36).

cardiac myocytes [2] = assay: Morphology of cardiac myocytes (cell shrinkage, cell death); format: cell-based, rat; conditions: within 6 h
caspase-9 = assay: Western blot of caspase-9 cleavage; format: cell-based, rat; conditions: Doxo, 6 and 24 hour time points
caspase-3 = assay: Immunoblot with anti-cleaved caspase-3 antibody; format: cell-based, rat; conditions: Doxo, 6 and 24 hour time points
Source text: For analyses of Mst1, cells were lysed in a Lysis Buffer A, containing 25 mmol/L NaCl, 25 mmol/L Tris (pH 7.4), 1 mmol/L Na3VO4, 10 mmol/L NaF, 10 mmol sodium pyrophosphate, 0.5 mmol/L EGTA, 0.5 mmol/L AEBSF, 0.5 μ/mL leupeptin, 0.5 μ/mL aprotinin. Samples containing the equal amount of protein were subjected to SDS-PAGE. Proteins were transferred onto polyvinylidene fluoride microporous membranes (Bio Rad, Hercules, Calif.) and probed with primary antibodies. We used anti-Mst1 monoclonal antibody (Transduction Laboratory, Lexington, Ky.) for detection of the carboxyl terminus of Mst1. Affinity purified rabbit polyclonal antibody was raised against animo-terminal ETVQLRNPPRRQLKC (pAb-15) (SEQ ID NO:4) (BioSource International, Camarillo, Calif.) for detection of the amino-terminus of Mst1. Blots were then probed by horseradish peroxidase-conjugated anti-mouse IgG or anti-rabbit IgG (Cell Signaling Technolog Inc., Beverly, Mass.). Antigen-antibody complexes were visualized by the enhanced chemiluminescence system (ECL, Amersham/Pharmacia, Piscataway, N.J.). Polyclonal antibodies raised against cleaved caspase-3 (Cell Signaling Technology Inc.) were used to determine activation of caspase-3, as described (35).

[3] = system: Neonatal rat cardiac myocytes; assay: Phenylephrine-induced hypertrophy of cultured cardiac myocytes; format: cell-based; conditions: PE 10 μM 48 h, LacZ virus-transduced myocytes
Source text: We have previously and above shown that mammalian sterile-20 like kinase 1 (Mst1) plays an important role in mediating cardiac myocyte apoptosis in response to ischemia/reperfusion and doxorubicin treatment. Cardiac specific overexpression of Mst1 in transgenic mice (Tg-Mst1) increases cardiac myocyte apoptosis in the heart and the mice develop dilated cardiomyopathy (DCM) and congestive heart failure within 3 months of age. […] Lack of compensatory cardiac myocyte hypertrophy may adversely affect LV function of Tg-Mst1 because operation of the Frank Starling mechanism could be less efficient at the individual cell level. This study was undertaken in order to elucidate if transient expression of Mst1 has a direct anti-hypertrophic effects in cultured cardiac myocytes in vitro. Neonatal rat cardiac myocytes were transduced with adenoviral vectors (10 MOI) in serum-free conditions for 48 h and then treated with phenylephrine (PE, 10 μM) for 48 h. Phenylephrine stimulates hypertrophy of cardiac myocytes in normal animals. Treatment of LacZ virus-transduced myocytes with PE caused a 2.4 fold increase in the cell size and a 1.7 fold increase in protein/DNA content. […] In summary, Mst1 has a direct anti-hypertrophic effect upon PE-treated cultured cardiac myocytes, possibly affecting other signaling mechanisms, including ERKs.

Mst1 = assay: In gel myelin basic protein (MBP) kinase assay of cardiac myocyte lysates; format: cell-based, rat; conditions: in the presence of DEVD-CHO, 100 μM
Method: FIGS. 1A, 1B, 1C, 1D and 1E depict Mst1 activity assessed on treatment of cardiac myocytes with chelerythrine (Chele) or calyculin A. (A) Cardiac myocytes were treated with indicated concentrations of chelerythrine for 1 h. Cell lysates were subjected to in-gel myelin basic protein (MBP) kinase assay as well as immunoblotting with anti-cleaved caspase-3 antibody. Results are representative of more than five experiments. (B) Cardiac myocytes were treated with chelerythrine (Chele). In the right panel, myocytes were transduced with either control virus or adenovirus harboring XIAP 48 hours before Chele application. Cell lysates were subjected with immune complex in-gel MBP kinase assays, using anti-Mst1 polyclonal antibody (pAb-15). The activity of cleaved Mst1 is shown. (C) Cardiac myocytes were treated with Chele for the indicated durations. […]
Primary cultures of ventricular cardiac myocytes were prepared from 1-day-old Crl: (WI) BR-Wistar rats (Charles River Laboratories, Wilmington, Mass.) as described previously (34). […] We obtained myocyte cultures in which more than 95% were myocytes, as assessed by immunofluorescence staining with a monoclonal antibody against sarcomeric myosin (MF20). […]

`COc1cccc2c1C(=O)c1c(O)c3c(c(O)c1C2=O)C[C@@](O)(C(=O)CO)C[C@@H]3O[C@H]1C[C@H](N)[C@H](O)[C@H](C)O1` [Dox, Doxorubicin] was tested, and the “OD405 value (DNA fragmentation ELISA)” value (cardiac myocytes [1]; 6 h treatment with 0.5 μM Dox, control virus) was 0.69, the “concentrations that dose-dependently induced cell shrinkage” value (cardiac myocytes [2]) was 0.1 to 3 µM and the “activation (cleavage) of caspase-9” value (caspase-9) was “time dependent manner”. The “activation (cleavage) of caspase-3” value (caspase-3) was “time dependent manner”.

`CNC[C@H](O)c1cccc(O)c1` [PE, phenylephrine] was tested, and the “increase in protein/DNA content” value [3] was 1.7 fold and the “increase in the cell size” value [3] was 2.4 fold.

In the case of `COC[C@@H]([C@H](O)[C@H](O)C(=O)NCC[C@H](C)c1nc(/C=C/C[C@@H]2O[C@]3(C[C@@H](O)[C@@H]2C)O[C@H]([C@H](C[C@H](O)[C@H](C)[C@H](O)[C@H](C)/C=C(C)/C(C)=C/C=C/C(C)=C\C#N)OC)[C@H](OP(=O)(O)O)C3(C)C)co1)N(C)C` [calyculin A], the “increase in cytoplasmic accumulation of oligo- and mono-nucleosomes” value (cardiac myocytes [1]; vs untreated, n=4, p<0.05) is reported as 4.3±1.4 fold and the “DNA fragmentation by calyculin A” value (cardiac myocytes [1]; with control virus) is reported as 5.6 fold.

In the case of DEVD-CHO, the “increases in DNA fragmentation by wild type Mst1” value (cardiac myocytes [1]; in the presence of DEVD-CHO, 100 μM) is reported as “inhibited” and the “increased activities and cleavage of Mst1 by overexpression of Mst1” value (Mst1) is reported as “attenuated”.

— patent US7160859B2, “Mst1 modulation of apoptosis in cardiac tissue and modulators of Mst1 for treatment and prevention of cardiac disease” (University of Medicine & Dentistry of New Jersey, priority 2002, dated 2007)
